The results in this text go back to ChEMBL document CHEMBL1250443, “Microarray-based method for monitoring yeast overexpression strains reveals small-molecule targets in TOR pathway” (Nat Chem Biol, 2006).

Test [1] in a line: Inhibition of TOR signaling in wild-type Saccharomyces cerevisiae transformed with overexpression plasmids assessed as decreased PRM6 gene expression by microarray.
The nature of test [2]: Inhibition of TOR signaling in wild-type Saccharomyces cerevisiae transformed with overexpression plasmids assessed as decreased YNL058C gene expression by microarray.
The nature of test [3]: Inhibition of TOR signaling in wild-type Saccharomyces cerevisiae transformed with overexpression plasmids assessed as decreased YNL305C gene expression by microarray.
Test [4] is described as follows: Inhibition of TOR signaling in wild-type Saccharomyces cerevisiae transformed with overexpression plasmids assessed as decreased SHO1 gene expression by microarray.
Test [5] in a line: Inhibition of TOR signaling in wild-type Saccharomyces cerevisiae transformed with overexpression plasmids assessed as increased APN2 gene expression by microarray.
The nature of test [6]: Inhibition of TOR signaling in wild-type Saccharomyces cerevisiae transformed with overexpression plasmids assessed as increased STM1 gene expression by microarray.
A short description of test [7]: Inhibition of TOR signaling in wild-type Saccharomyces cerevisiae transformed with overexpression plasmids assessed as decreased HOL1 gene expression by microarray.
Test [8] is described as follows: Inhibition of TOR signaling in wild-type Saccharomyces cerevisiae transformed with overexpression plasmids assessed as decreased APM2 gene expression by microarray.
For test [9], the system named is Saccharomyces cerevisiae. Put plainly: Decrease of YJL051W gene expression in wild-type Saccharomyces cerevisiae transformed with overexpression plasmids by microarray. The test is classed as functional.
In test [10] the test system is Saccharomyces cerevisiae. As to the kind of experiment: Increase of FMP38 gene expression in wild-type Saccharomyces cerevisiae transformed with overexpression plasmids by microarray. The test is classed as functional.
The nature of test [11]: Inhibition of TOR signaling in wild-type Saccharomyces cerevisiae transformed with overexpression plasmids assessed as decreased FRE5 gene expression by microarray.
Test [12] in a line: Inhibition of TOR signaling in wild-type Saccharomyces cerevisiae transformed with overexpression plasmids assessed as decreased NRG1 gene expression by microarray.
A short description of test [13]: Inhibition of TOR signaling in wild-type Saccharomyces cerevisiae transformed with overexpression plasmids assessed as decreased SET4 gene expression by microarray.
Test [14] can be described thus: Inhibition of TOR signaling in wild-type Saccharomyces cerevisiae transformed with overexpression plasmids assessed as increased PZF1 gene expression by microarray.
Test [15] in a line: Inhibition of TOR signaling in wild-type Saccharomyces cerevisiae transformed with overexpression plasmids assessed as decreased PUT4 gene expression by microarray.
A short description of test [16]: Inhibition of TOR signaling in wild-type Saccharomyces cerevisiae transformed with overexpression plasmids assessed as increased CDC33 gene expression by microarray.
A short description of test [17]: Inhibition of TOR signaling in wild-type Saccharomyces cerevisiae transformed with overexpression plasmids assessed as decreased OLE1 gene expression by microarray.
The nature of test [18]: Inhibition of TOR signaling in wild-type Saccharomyces cerevisiae transformed with overexpression plasmids assessed as increased SSE1 gene expression by microarray.
The nature of test [19]: Inhibition of TOR signaling in wild-type Saccharomyces cerevisiae transformed with overexpression plasmids assessed as increased NOG1 gene expression by microarray.
Test [20] can be described thus: Inhibition of TOR signaling in wild-type Saccharomyces cerevisiae transformed with overexpression plasmids assessed as decreased SUT2 gene expression by microarray.

In the case of `CO[C@H]1C[C@@H]2CC[C@@H](C)[C@@](O)(O2)C(=O)C(=O)N2CCCC[C@H]2C(=O)O[C@H]([C@H](C)C[C@@H]2CC[C@@H](O)[C@H](OC)C2)CC(=O)[C@H](C)/C=C(\C)[C@@H](O)[C@@H](OC)C(=O)[C@H](C)C[C@H](C)/C=C/C=C/C=C/1C` [SIROLIMUS], the fold change (FC) is -4.4 in test [1]; -2.1 in test [2]; -2.5 in test [3]; -4.4 in test [4]; 2.1 in [5]; 5.7 in test [6]. In addition, the fold change (FC) in test [7] is -4.5; in test [8] it was -2.4; in the test on Saccharomyces cerevisiae [9] it was -2.5; in the test with Saccharomyces cerevisiae [10], -3.2; in [11] it was -8.1; in [12] it was -2.3. Further, the fold change (FC) is -2.2 in test [13]; 2.1 in test [14]; -3.1 in test [15]; 2 in test [16]; -3.2 in test [17]; 11.4 in test [18]. In addition, the fold change (FC) in [19] was 2.9; in test [20], -3.8.
